Reference: patent publication US20170066717A1, “NEW PHENYLAZETIDINECARBOXYLATE OR -CARBOXAMIDE COMPOUNDS” (INVENTIVA, priority 2014, published 2017)
pEC50: −log10 of the molar value.

Assays:
NURR-1/RXRγ = target: T1, NURR-1/RXRγ (Homo sapiens, UniProt P48443); experiment: Transactivation test, NURR-1-Gal4/RXRγ, luciferase reporter in Cos-7 cells; assay type: cell-based; conditions: for Emax: COS-7, induction level relative to reference XCT0135908 at 2×10^−5 M (=100%), read-out: hNurr1_RXRgFL Emax (%); for pEC50: Cos-7 cells, NURR-1-Gal4/RXRγ, luciferase reporter, read-out: hNurr1_RXRgFL EC50
T1 construct: expressed in transfected cells; host or cells: Cos-7 cells
T1 sequence (P48443 whole entry, the tested form may be a part): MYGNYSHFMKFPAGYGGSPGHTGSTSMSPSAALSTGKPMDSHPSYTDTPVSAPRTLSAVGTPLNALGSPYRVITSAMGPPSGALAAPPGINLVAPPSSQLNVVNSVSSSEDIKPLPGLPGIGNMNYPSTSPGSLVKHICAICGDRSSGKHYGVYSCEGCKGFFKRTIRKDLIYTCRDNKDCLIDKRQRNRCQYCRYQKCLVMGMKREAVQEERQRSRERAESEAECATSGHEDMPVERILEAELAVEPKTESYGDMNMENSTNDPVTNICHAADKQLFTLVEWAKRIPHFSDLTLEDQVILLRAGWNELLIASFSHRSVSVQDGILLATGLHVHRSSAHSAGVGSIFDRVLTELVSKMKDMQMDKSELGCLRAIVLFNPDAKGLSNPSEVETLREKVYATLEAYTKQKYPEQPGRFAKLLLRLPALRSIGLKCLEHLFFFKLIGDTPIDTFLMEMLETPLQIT
T1 sequence (P43354 whole entry partner, the tested form may be a part): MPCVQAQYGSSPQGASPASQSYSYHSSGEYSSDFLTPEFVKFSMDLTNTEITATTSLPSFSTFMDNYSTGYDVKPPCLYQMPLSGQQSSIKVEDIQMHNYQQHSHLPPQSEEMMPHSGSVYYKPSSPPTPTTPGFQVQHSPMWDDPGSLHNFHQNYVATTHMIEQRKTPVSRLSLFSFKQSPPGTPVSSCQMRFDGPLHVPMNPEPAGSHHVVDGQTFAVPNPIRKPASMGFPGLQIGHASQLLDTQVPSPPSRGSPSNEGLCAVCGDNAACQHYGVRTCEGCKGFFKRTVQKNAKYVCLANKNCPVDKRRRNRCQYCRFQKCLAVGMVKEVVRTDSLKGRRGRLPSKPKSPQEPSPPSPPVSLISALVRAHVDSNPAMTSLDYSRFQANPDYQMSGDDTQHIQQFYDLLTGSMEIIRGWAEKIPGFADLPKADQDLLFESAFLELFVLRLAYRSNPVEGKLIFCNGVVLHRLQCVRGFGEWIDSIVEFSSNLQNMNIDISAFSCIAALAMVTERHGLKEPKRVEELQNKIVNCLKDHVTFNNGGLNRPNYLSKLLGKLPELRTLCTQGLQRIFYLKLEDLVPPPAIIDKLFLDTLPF
T1 sequence (P04386 1-147 partner limits assumed): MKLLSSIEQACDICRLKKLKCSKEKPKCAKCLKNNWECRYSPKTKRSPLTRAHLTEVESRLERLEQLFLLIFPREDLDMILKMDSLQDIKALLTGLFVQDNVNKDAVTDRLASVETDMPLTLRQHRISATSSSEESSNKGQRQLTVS

NURR-1/RXRα = target: T2, NURR-1/RXRα (Homo sapiens, UniProt P19793); experiment: Transactivation test, NURR-1-Gal4/RXRα, luciferase reporter in Cos-7 cells; assay type: cell-based; conditions: for Emax: COS-7, induction level relative to reference XCT0135908 at 2×10^−5 M (=100%), read-out: hNurr1_RXRaFL Emax (%); for pEC50: Cos-7 cells, NURR-1-Gal4/RXRα, luciferase reporter, read-out: hNurr1_RXRaFL EC50
T2 construct: expressed in transfected cells; host or cells: Cos-7 cells
T2 sequence (P19793 whole entry, the tested form may be a part): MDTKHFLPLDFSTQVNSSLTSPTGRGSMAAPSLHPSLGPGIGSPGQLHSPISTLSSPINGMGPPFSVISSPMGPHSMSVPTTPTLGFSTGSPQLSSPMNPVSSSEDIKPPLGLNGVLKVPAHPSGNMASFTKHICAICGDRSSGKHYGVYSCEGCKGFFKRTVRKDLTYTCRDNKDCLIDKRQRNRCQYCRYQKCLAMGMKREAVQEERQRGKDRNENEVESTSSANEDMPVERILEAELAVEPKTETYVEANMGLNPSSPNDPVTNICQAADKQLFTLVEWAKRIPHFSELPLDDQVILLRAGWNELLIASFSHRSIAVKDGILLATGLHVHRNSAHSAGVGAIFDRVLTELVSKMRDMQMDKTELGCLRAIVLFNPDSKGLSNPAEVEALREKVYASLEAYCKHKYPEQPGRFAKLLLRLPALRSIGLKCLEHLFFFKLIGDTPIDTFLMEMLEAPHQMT
T2 sequence (P43354 whole entry partner, the tested form may be a part): as the sequence (P43354 whole entry partner, the tested form may be a part) above
T2 sequence (P04386 1-147 partner limits assumed): as the sequence (P04386 1-147 partner limits assumed) above

| SMILES | Emax (NURR-1/RXRγ) | pEC50 (NURR-1/RXRγ) | Emax (NURR-1/RXRα) | pEC50 (NURR-1/RXRα) | melting point |
| --- | --- | --- | --- | --- | --- |
| CCC1Oc2cc(C(F)(F)F)ccc2N(c2cccc(N3CC(C(=O)O)C3)c2)C1=O (centres unmarked) [Example 123, 1-[3-[2-ethyl-3-oxo-7-(trifluromethyl)-1,4-benzoxazin-4-yl]phenyl]azetidine-3-carboxylic acid] | 77% | 7.43 | 90% | 6.92 | 148 to 152 °C |
| O=C(O)C1CN(c2cccc(-n3cc(CC4CCC4)c4cc(C(F)(F)F)ccc43)c2)C1 [Example 126, 1-[3-[3-(cyclobutylmethyl)-5-(trifluromethyl)indol-1-yl]phenyl]azetidine-3-carboxylc acid] | 116% | 8.52 | 128% | 9.00 | 58 to 64 °C |
| CC1(C)CNc2cc(C(F)(F)F)cc(-c3cccc(N4CC(C(=O)O)C4)c3)c2O1 [Example 202, 1-[3-[2,2-dimethyl-6-(trifluoromethyl)-3,4-dihydro-1,4-benzoxazin-8-yl]phenyl]azetidine-3-carboxylic acid] | 51% | 6.52 | 55% | 6.51 | 160 to 169 °C |
| CC(C)Cn1c(=O)n(-c2cccc(N3CC(C(=O)O)C3)c2)c2ccc(C(F)(F)F)cc21 [Example 148] | 130% | 7.25 | 122% | 7.51 | 134 to 144 °C |
| COCCNCc1cn(-c2cccc(N3CC(C(=O)O)C3)c2)c2ccc(C(F)(F)F)cc12 [Example 133, 1-[3-[3-[(2-methoxyethylamino)methyl]-5-(trifluoromethyl)indol-1-yl]phenyl]azetidine-3-carboxylic acid] | 61% | 5.70 | 93% | 5.99 | 116 to 121 °C |
| Cc1cn(-c2cccc(N3CC(C(=O)NC4CC4)C3)c2)c2ccc(C(F)(F)F)cc12 [Example 184, N-cyclopropyl-1-[3-[3-methyl-5-(trifluoromethyl)indol-1-yl]phenyl]azetidine-3-carboxamide] | 91% | 8.15 | 90% | 8.30 | 182 to 184 °C |
| CC1N(c2cccc(N3CC(C(=O)O)C3)c2)c2ccc(C(F)(F)F)cc2OC1(C)C (centres unmarked) [Example 216, 1-[3-[2,2,3-trimethyl-7-(trifluoromethyl)-3H-1,4-benzoxazin-4-yl]phenyl]azetidine-3-carboxylate acid] | 115% | 7.89 | 98% | 8.10 | 70 to 80 °C |
| Cc1cc2c(c(-c3cccc(N4CC(C(=O)O)C4)c3)c1)NCC(C)(C)O2 [Example 190, 1-[3-(2,2,7-trimethyl-3,4-dihydro-1,4-benzoxazin-5-yl)phenyl]azetidine-3-carboxylic acid] | 109% | 7.44 | 110% | 7.74 | 82 to 90 °C |
| CCC1CNc2c(cc(C(F)(F)F)cc2-c2cccc(N3CC(C(=O)O)C3)c2)O1 (centres unmarked) [Example 66, 1-[3-[2-ethyl-7-(trifluoromethyl)-3,4-dihydro-2H-1,4-benzoxazin-5-yl]phenyl]azetidine-3-carboxylic acid] | 95% | 7.60 | 98% | 8.10 | 115 to 121 °C |
| COc1cc(N2CC(C(=O)O)C2)cc(N2CC(C)(C)Oc3cc(C(F)(F)F)ccc32)c1 [Example 236, 1-[3-[2,2-dimethyl-7-(trifluoromethyl)-3H-1,4-benzoxazin-4-yl]-5-methoxyphenyl]azetidine-3-carboxylic acid] | 98% | 7.20 | 93% | 7.68 | 70 to 75 °C |
| O=C(O)C1CN(c2cccc(-c3cc(C(F)(F)F)nc4cc(Cl)ccc34)c2)C1 [Example 82, 1-[3-[7-chloro-2-(trifluoromethyl)-4-quinolyl]phenyl]azetidine-3-carboxylic acid] | 99% | 7.14 | 110% | 7.51 | 98 to 101 °C |
| CC(C)c1ccc2c(c1)OC(C)(C)C(=O)N2c1cccc(N2CC(C(=O)O)C2)c1 [Example 251, 1-[3-(7-isopropyl-2,2-dimethyl-3-oxo-1,4-benzoxazin-4-yl)phenyl]azetidine-3-carboxylic acid] | 88% | 6.12 | 93% | 6.29 | 104 to 108 °C |
| CCc1ccc2c(c1)OC(C)(C)CN2c1cccc(N2CC(C(=O)[O-])C2)c1.[Na+] [Example 235, sodium 1-[3-(7-ethyl-2,2-dimethyl-3H-1,4-benzoxazin-4-yl)phenyl]azetidine-3-carboxylate] | 107% | 6.76 | 102% | 7.04 | 160 to 188 °C |
| COc1ccc2c(c1)OC(C)(C)CN2c1cccc(N2CC(C(=O)O)C2)c1 [Example 233, 1-[3-(7-methoxy-2,2-dimethyl-3H-1,4-benzoxazin-4-yl)phenyl]azetidine-3-catboxylic aicd] | 52% | 5.82 | 97% | 5.80 | 54 to 56 °C |
| O=C([O-])C1CN(c2cccc(N3c4ccc(Cl)cc4C4CC43)c2)C1.[Na+] (centres unmarked) [Example 280, sodium 1-[3-(5-chloro-1a,6b-dihydro-1H-cyclopropa[b]indol-2-yl)phenyl]azetidine-3-carboxylate] | 77% | 6.83 | 95% | 7.09 | 62 to 69 °C |
| O=C([O-])C1CN(c2cccc(N3c4ccc(Cl)cc4C4CCCC43)c2)C1.[Na+] (centres unmarked) [Example 261, sodium 1-[3-(7-chloro-2,3,3a,8b-tetrahydro-1H-cyclopenta[b]indol-4-yl)phenyl]azetidine-3-carboxylate] | 95% | 6.52 | 78% | 7.51 | 141 to 170 °C |
| Cc1cn(-c2cccc(N3CC(C(N)=O)C3)c2)c2ccc(C(F)(F)F)cc12 [Example 185, 1-[3-[3-methyl-5-(trifluoromethyl)indol-1-yl]phenyl]azetidine-3-carboxamide] | 90% | 8.15 | 95% | 8.30 | 160 to 163 °C |
| CC(C)N(C)Cc1cn(-c2cccc(N3CC(C(=O)O)C3)c2)c2ccc(C(F)(F)F)cc12 [Example 134, 1-[3-[3-[[iisopropyl(methyl)amino]methyl]-5-(trifluoromethyl)indol-1-yl]phenyl]azetidine-3-carboxylic acid] | 108% | 6.18 | 89% | 6.64 | 88 to 95 °C |
| O=C(O)C1CN(c2cccc(-c3cc(C(F)(F)F)cc4c3NCC3(CCC3)O4)c2)C1 [Example 62, 1-[3-[7-(trifluoromethyl)spiro[3,4-dihydro-1,4-benzoxazine-2,1′-cyclobutane]-5-yl]phenyl]azetidine-3-carboxylic acid] | 107% | 8.15 | 97% | 8.40 | 80 to 85 °C |
| O=C(O)C1CN(c2cccc(-n3cc(CN4CCOCC4)c4cc(C(F)(F)F)ccc43)c2)C1 [Example 132, 1-[3-[3-(morpholinomethyl)-5-(trifluoromethyl)indol-1-yl]phenyl]azetidine-3-carboxylic acid] | 132% | 6.88 | 97% | 7.21 | 93 to 98 °C |
| CC1(C)Oc2cc(C(F)(F)F)ccc2N(c2cccc(N3CC(C(=O)O)C3)c2)C1=O [Example 120, 1-[3-[2,2-dimethyl-3-oxo-7-(trifluoremethyl)-1,4-benzoxazin-4-yl]phenyl]azetidine-3-carboxylic acid] | 112% | 7.47 | 108% | 7.70 | 80 to 86 °C |
| CC1(C)CCC2C(C1)c1cc(C(F)(F)F)ccc1N2c1cccc(N2CC(C(=O)O)C2)c1 (centres unmarked) [Example 145, 1-[3-[3,3-dimethyl-6-(trifluoromethyl)-2,4,4a,9a-tetrahydro-1H-carbazol-9-yl]phenyl]azetidine-3-carboxylic acid] | 96% | 8.22 | 98% | 8.40 | 96 to 100 °C |
| CC(C)c1cc2c(c(-c3cccc(N4CC(C(=O)[O-])C4)c3)c1)NCC(C)(C)C2.[Na+] [Example 208, sodium 1-[3-(6-isopropyl-3,3-dimethyl-2,4-dihydro-1H-quinoline-8-yl)phenyl]azetidine-3-carboxylate] | – | – | 109% | 7.96 | 196 to 203 °C |
| CC1(C)CCNc2c(cc(C(C)(C)C)cc2-c2cccc(N3CC(C(=O)[O-])C3)c2)O1.[Na+] [Example 210, sodium 1-[3-(8-tert-butyl-2,2-dimethyl-4,5-dihydro-3H-1,5-benzoxazepin-6-yl)phenyl]azetidine-3-carboxylate] | – | – | 88% | 7.12 | 169 to 176 °C |
| CC1(C)N=C(c2cccc(N3CC(C(=O)[O-])C3)c2)c2ccc(C(F)(F)F)cc2O1.[Na+] [Example 271, sodium 1-[3-[2,2-dimethyl-7-(trifluoromethyl)-1,3-benzoxazin-4-yl]phenyl]azetidine-3-carboxylate] | – | – | 114% | 7.59 | 141 to 146 °C |
